The values below come from patent US20240109897A1, “MODULATORS OF FPR1 AND METHODS OF USING THE SAME” (BEIJING TIANTAN HOSPITAL, priority 2021, published 2024).

The first test deals with ICH mice. The test is described as follows: MRI lesion, hematoma and perihematomal edema volume in intracerebral hemorrhage (ICH) mouse model. To be noted: at 3 days after ICH, brain MRI, vs vehicle. The test is classed as in vivo. An excerpt:
The intracerebral hemorrhage (ICH) model in mice was used to illustrate the protective benefits of the compounds of this disclosure, and FIG. 1 depicts the procedure in preparing this model. ICH was induced in C57 B/L6 male mice by the injection of an autologous blood or collagenase as previously described (Lauer et al., Circulation 124: 1654-1662 (2011); Rynkowski et al., Nat. Protoc. 3:122-128 (2008)). Mice were anesthetized using isoflurane inhalation and fixed on a stereotactic frame. A burr hole was drilled on the right side of the skull at 2.3 mm lateral to the midline and 0.5 mm anterior to the bregma. For the autologous blood model, 30 μl of non-heparinized blood was withdrawn from the angular vein. The first 5 μl blood was injected at a depth of 3 mm beneath the hole, and the rest 25 μl blood were injected at 3.7 mm beneath the hole with a rate of 1 μl/min. In the collagenase model, 0.038 U of the bacterial collagenase (in 0.5 μl saline) was infused to the striatum (0.5 mm anterior, 2.3 mm right lateral, and 3.5 mm deep relative to bregma) at a speed of 0.5 μl/min. Mice on the sham control were injected with an equal volume of saline. Throughout the procedure, the body temperature was maintained at 37° C. with a homeothermic blanket. After the surgery, mice were under observation with free access to food and water. […]
The total lesion volume was measured on the 7T small-animal MM scanner (Bruker, Corp., USA) as described (Li et al., 2017). The T2-weighted water imaging was recorded with following parameters (repetition time (TR)=4500 ms, echo time (TE)=65.5 ms, field of view (FOV)=28×28 mm^2, image matrix=256×256, at 0.5-mm slice thickness). […] The volumes were manually outlined and calculated by multiplying the sum of the volume by the distance between sections (0.5 mm) using MIPAV software. PHE volumes were calculated as total lesion volume minus hematoma volume. MRI data were analyzed by two investigators blinded to experimental groups.
For `O=C1c2n[nH]c(-c3ccccn3)c2C(c2ccc(Cl)cc2)N1C1CCOCC1` (racemic) [Comp14], the peri-hematomal edema entry is reported as “significantly reduced”.

Still in this test, the particulars now being: brain MRI, vs vehicle.
For the compound `O=C1c2n[nH]c(-c3ccccn3)c2C(c2ccc(Cl)cc2)N1C1CCOCC1` (racemic) [Comp14], the hematoma size entry is recorded as “no difference”.

The target of the next test is T1, FPR1 (UniProt P21462).
T1 sequence (P21462 1-350): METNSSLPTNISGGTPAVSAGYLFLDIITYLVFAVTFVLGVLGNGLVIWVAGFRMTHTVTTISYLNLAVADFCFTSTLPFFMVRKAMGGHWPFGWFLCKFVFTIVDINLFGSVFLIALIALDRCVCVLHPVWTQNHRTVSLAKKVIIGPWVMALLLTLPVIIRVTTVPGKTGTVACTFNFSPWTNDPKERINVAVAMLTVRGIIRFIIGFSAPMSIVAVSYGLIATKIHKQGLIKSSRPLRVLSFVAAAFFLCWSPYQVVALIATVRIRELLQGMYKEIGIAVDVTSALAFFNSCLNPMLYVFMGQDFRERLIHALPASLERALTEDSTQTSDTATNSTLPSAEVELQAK
The test is described as follows: fMLP-FPR1 mediated calcium signaling assay in FPR1-overexpressing 293T cells. The test is classed as cell-based, human or mouse. To be noted: inhibition of fMLP-FPR1 mediated intracellular calcium change; hFPR1 or mFPR1 overexpressing 293T cells; 10 min preincubation; INDO-1 AM, FACS. On the procedure: The effects of the compounds of this disclosure on regulating the FPR1-mediated cell signaling were measured by monitoring the cellular calcium level change, as illustrated by the exemplary examples in Table 2. The dose response of the illustrated examples are reported categorically using the following ranking criteria: *** (IC50≤100 nM); ** (IC50≥100 to ≤1000 nM); * (IC50≥1000 to ≤10,000 nM); N.D.—not detected.
The coding DNA sequence (CDS) of human FPR1 (NM_001193306) and mouse FPR1 (NM_013521) were cloned and inserted to the lentivirus vector GV367 (Vector information:http://www.genechem.com.cn/index/supports/tool_search.html?keywords=GV367) under the conduction of pCMV promoter. 293T cells were cultured in H-DMEM supplemented with 10% FBS and 1% penicillin-streptomycin (PS) at 37° C. in 5% CO2 Incubator. 293T cells were transfected with lentivirus vector GV367 containing the CDS of human or mouse FPR1 for 24 h and then cultured with complete medium for another 48 h. At 72 h after transfected, cells were passaged, and 5 μg/ml puromycin was added to screen FPR1-transfected 293T cells. The overexpression of human or mouse FPR1 in 293 T cells were detected by immunostaining with anti-mouse or human FPR1 antibodies (Biolegend or Antibody Online).
Cultured hFPR1 or mFPR1 overexpressing 293T cells were labeled with 1 μM INDO-1 AM calcium sensor dye (eBioscience) for 30 min at 37° C. After washed with 1×PBS, cells were resuspended with H-DMEM containing 3% FBS, and were maintained on ice prior to the measurement of intracellular calcium concentration. To measure the inhibitory potency of designed potential FPR1 antagonists, hFPR1 or mFPR1 overexpressing 293T cells were incubated with the compound for 10 min at room temperature. The cytoplasmic calcium levels were then measured by FACS Aria III at 37° C. prior to and after the stimulation of fMLP. We defined the immunofluorescence intensity of indo-1 AM before adding fMLP as the basal value, and the intensity at the peak immunofluorescence reduction after adding fMLP as minimum value for each sample. The change of intracellular calcium was calculated as follow: (basal value−minimum value)/basal value×100%. The IC50 of each compound in inhibiting fMLP-FPR1 mediated intracellular calcium concentration in 293T cells were automatically calculated with Prism 8.0.2 software (GraphPad) after inputting a series of change of intracellular calcium at multiple concentration gradients (from 0 nM to 100 μM).
Turning to `CO[C@H]1CC[C@@H](N2C(=O)c3n[nH]c(-c4cc(C)ccc4O)c3C2c2ccc(C(F)(F)F)cc2)CC1` (mixture of isomers) [Compound 7, rac-3-(2-hydroxy-5-methylphenyl)-5-((1S,4S)-4-methoxycyclohexyl)-4-(4-(trifluoromethyl)phenyl)-4,5-dihydropyrrolo[3,4-c]pyrazol-6(2H)-one], the IC50 lay in the range of 1000 to 10000 nM.
`Cc1ccc(O)c(-c2[nH]nc3c2C(c2ccc(C(F)(F)F)cc2)N(C2CCNCC2)C3=O)c1` (racemic) [Compound 4, Rac-3-(2-hydroxy-5-methylphenyl)-5-(piperidin-4-yl)-4-(4-(trifluoromethyl)phenyl)-4,5-dihydropyrrolo[3,4-c]pyrazol-6(2H)-one]: the IC50 fell in the range of 1000 to 10000 nM.
On the same count and under the same terms, the result for `CC(=O)N1CCC(N2C(=O)c3n[nH]c(-c4cc(C)ccc4O)c3C2c2ccc(C(F)(F)F)cc2)CC1` (racemic) [Compound 5, Rac-5-(1-acetylpiperidin-4-yl)-3-(2-hydroxy-5-methylphenyl)-4-(4-(trifluoromethyl)phenyl)-4,5-dihydropyrrolo[3,4-c]pyrazol-6(2H)-one] reads 100 to 1000 nM; that for `COC1CCC(N2C(=O)c3n[nH]c(-c4cc(C)ccc4O)c3C2c2ccc(C(F)(F)F)cc2)CC1` (racemic) [Compound 8, Rac-3-(2-hydroxy-5-methylphenyl)-5-((1r,4r)-4-methoxycyclohexyl)-4-(4-(trifluoromethyl)phenyl)-4,5-dihydropyrrolo[3,4-c]pyrazol-6(2H)-one], 1000 to 10000 nM; that for `O=C1c2n[nH]c(-c3cc(Cl)ccc3O)c2C(c2ccc(C(F)(F)F)cc2)N1C1CCOCC1` (racemic) [Compound 9, Rac-3-(5-chloro-2-hydroxyphenyl)-5-(tetrahydro-2H-pyran-4-yl)-4-(4-(trifluoromethyl)phenyl)-4,5-dihydropyrrolo[3,4-c]pyrazol-6(2H)-one], 100 to 1000 nM.
Same read-out and setting: the result for `O=C1c2n[nH]c(-c3cc(F)ccc3O)c2C(c2ccc(Cl)cc2)N1C1CCOCC1` (racemic) [Compound 10, Rac-4-(4-chlorophenyl)-3-(5-fluoro-2-hydroxyphenyl)-5-(tetrahydro-2H-pyran-4-yl)-4,5-dihydropyrrolo[3,4-c]pyrazol-6(2H)-one] reads 1000 to 10000 nM; that for `O=C1c2n[nH]c(-c3cc(F)ccc3O)c2C(c2ccc(C(F)(F)F)cc2)N1C1CCOCC1` (racemic) [Compound 13, rac-3-(5-fluoro-2-hydroxyphenyl)-5-(tetrahydro-2H-pyran-4-yl)-4-(4-(trifluoromethyl)phenyl)-4,5-dihydropyrrolo[3,4-c]pyrazol-6(2H)-one], 1000 to 10000 nM.
For `O=C1c2n[nH]c(-c3ccccn3)c2C(c2ccc(Cl)cc2)N1C1CCOCC1` (racemic) [Compound 14, Rac-4-(4-chlorophenyl)-3-(pyridin-2-yl)-5-(tetrahydro-2H-pyran-4-yl)-4,5-dihydropyrrolo[3,4-c]pyrazol-6(2H)-one], the IC50 was in the range of 1000 to 10000 nM.
Same read-out and setting: the figure for `Cc1ccc(O)c(-c2[nH]nc3c2[C@H](c2ccc(C(F)(F)F)cc2)N(C2CCOCC2)C3=O)c1` (single isomer, unassigned) [Compound 2] is 100 to 1000 nM.
Still for that read-out and setting: the figure for `Cc1ccc(O)c(-c2[nH]nc3c2[C@@H](c2ccc(C(F)(F)F)cc2)N(C2CCOCC2)C3=O)c1` (single isomer, unassigned) [Compound 3] is 1000 to 10000 nM; for `O=C1c2n[nH]c(-c3cc(F)ccc3O)c2[C@H](c2ccc(Cl)cc2)N1C1CCOCC1` (single isomer, unassigned) [Compound 11] it is 1000 to 10000 nM; for `O=C1c2n[nH]c(-c3cc(F)ccc3O)c2[C@@H](c2ccc(Cl)cc2)N1C1CCOCC1` (single isomer, unassigned) [Compound 12] it is 1000 to 10000 nM.

Usually IC50 stands for the concentration at which inhibition is half-maximal.
